What follows are molecules tested against T1, human ferroportin (Homo sapiens, UniProt Q9NP59) (assay: Biological in-vitro ferroportin internalization assay (luciferase reporter)). Details: average pEC50; stably-transfected CHO cell line expressing human ferroportin tagged to a luciferase reporter; 6 h incubation with test compound.
T1 construct: luciferase reporter (read with the Nano-Glo Luciferase Assay System); expressed in transfected cells; host or cells: CHO cells, stably transfected, expression induced with doxycycline
T1 sequence (Q9NP59 1-571): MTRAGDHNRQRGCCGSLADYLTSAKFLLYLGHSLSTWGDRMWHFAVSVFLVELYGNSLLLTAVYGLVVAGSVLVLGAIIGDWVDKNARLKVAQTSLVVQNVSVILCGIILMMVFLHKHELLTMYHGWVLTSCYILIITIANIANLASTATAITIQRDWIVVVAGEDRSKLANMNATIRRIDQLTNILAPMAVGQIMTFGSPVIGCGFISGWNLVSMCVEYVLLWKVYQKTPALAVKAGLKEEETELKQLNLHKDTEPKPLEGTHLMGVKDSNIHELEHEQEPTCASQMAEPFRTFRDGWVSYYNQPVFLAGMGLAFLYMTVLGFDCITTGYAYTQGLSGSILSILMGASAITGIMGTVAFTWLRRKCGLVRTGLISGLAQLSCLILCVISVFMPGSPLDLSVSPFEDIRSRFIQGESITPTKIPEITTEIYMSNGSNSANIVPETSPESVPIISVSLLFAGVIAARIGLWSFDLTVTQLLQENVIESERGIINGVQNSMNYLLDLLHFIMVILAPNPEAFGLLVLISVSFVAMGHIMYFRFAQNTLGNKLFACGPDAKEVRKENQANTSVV
Assay type: cell-based
Procedure, shortened: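 Read-out is Nano-Glo luciferase signal after 6 h compound exposure, with average pEC50 derived. Cells are a stable CHO line carrying luciferase-tagged human ferroportin, pre-loaded 24 h with ferric ammonium citrate and doxycycline-induced for 24 h.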

Compound | pEC50
COc1ccc(NC(=O)CN(C)c2nc(-c3cc(OCCO)ccn3)nc3c2C(C)(C)CC3)cn1 [Compound 363, 2-({2-[4-(2-hydroxyethoxy)pyridin-2-yl]-5,5-dimethyl-5H,6H,7H-cyclopenta[d]pyrimidin-4-yl}(methyl)amino)-N-(6-methoxypyridin-3-yl)acetamide] | 8.3
C[C@@H](O)COc1ccnc(-c2nc3c(c(N(C)CC(=O)NC(C)(C)C)n2)CCC3)c1 [Compound 366, N-tert-butyl-2-[(2-{4-[(2R)-2-hydroxypropoxy]pyridin-2-yl}-5H,6H,7H-cyclopenta[d]pyrimidin-4-yl)(methyl)amino]acetamide] | 7.7
CCC(C)(C)NC(=O)CN(C)c1nc(-c2cc(OCCO)ccn2)nc2c1CCC2 [Compound 367, 2-({2-[4-(2-hydroxyethoxy)pyridin-2-yl]-5H,6H,7H-cyclopenta[d]pyrimidin-4-yl}(methyl)amino)-N-(2-methylbutan-2-yl)acetamide] | 8
CN(CC(=O)N1CCCC1(C)C)c1nc(-c2cc(OCCO)ccn2)nc2c1CCC2 [Compound 368, 1-(2,2-dimethylpyrrolidin-1-yl)-2-({2-[4-(2-hydroxyethoxy)pyridin-2-yl]-5H,6H,7H-cyclopenta[d]pyrimidin-4-yl}(methyl)amino)ethan-1-one] | 7.8
C[C@H](O)COc1ccnc(-c2nc3c(c(N(C)CC(=O)NC(C)(C)C)n2)CCC3)c1 [Compound 370, N-tert-butyl-2-[(2-{4-[(2S)-2-hydroxypropoxy]pyridin-2-yl}-5H,6H,7H-cyclopenta[d]pyrimidin-4-yl)(methyl)amino]acetamide] | 8.2
COc1ccnc(-c2nc3c(c(N(C)CC(=O)N[C@@H]4CCOC4)n2)CCC3)c1 [Compound 372, 2-{[2-(4-methoxypyridin-2-yl)-5H,6H,7H-cyclopenta[d]pyrimidin-4-yl](methyl)amino}-N-[(3R)-oxolan-3-yl]acetamide] | 7.5
CN(CC(=O)NC1COC1)c1nc(-c2cc(OCCO)ccn2)nc2c1CCC2 [Compound 374, 2-({2-[4-(2-hydroxyethoxy)pyridin-2-yl]-5H,6H,7H-cyclopenta[d]pyrimidin-4-yl}(methyl)amino)-N-(oxetan-3-yl)acetamide] | 7.2
COc1cc2c(cn1)N(C(=O)CN(C)c1nc(-c3cc(OCCO)ccn3)nc3c1CCC3)CC2 [Compound 375, 2-({2-[4-(2-hydroxyethoxy)pyridin-2-yl]-5H,6H,7H-cyclopenta[d]pyrimidin-4-yl}(methyl)amino)-1-{5-methoxy-1H,2H,3H-pyrrolo[2,3-c]pyridin-1-yl}ethan-1-one] | 8
C[C@H](O)COc1ccnc(-c2nc3c(c(N(C)CC(=O)NC4(C)CCC4)n2)CCC3)c1 [Compound 378, 2-[(2-{4-[(2S)-2-hydroxypropoxy]pyridin-2-yl}-5H,6H,7H-cyclopenta[d]pyrimidin-4-yl)(methyl)amino]-N-(1-methylcyclobutyl)acetamide] | 8
COc1ccnc(-c2nc3c(c(N(C)Cc4nc(-c5ccccc5)co4)n2)CCC3)c1 [Compound 380, 2-(4-methoxypyridin-2-yl)-N-methyl-N-[(4-phenyl-1,3-oxazol-2-yl)methyl]-5H,6H,7H-cyclopenta[d]pyrimidin-4-amine] | 6.6
CN(CC(=O)NC(C)(C)C)c1nc(-c2cc(OCC3(O)CCCC3)ccn2)nc2c1CCC2 [Compound 381, N-tert-butyl-2-[(2-{4-[(1-hydroxycyclopentyl)methoxy]pyridin-2-yl}-5H,6H,7H-cyclopenta[d]pyrimidin-4-yl)(methyl)amino]acetamide] | 8.3
C[C@H](CO)Oc1ccnc(-c2nc3c(c(N(C)CC(=O)NC(C)(C)C)n2)CCC3)c1 [Compound 384, N-tert-butyl-2-{[2-(4-{[(2R)-1-hydroxypropan-2-yl]oxy}pyridin-2-yl)-5H,6H,7H-cyclopenta[d]pyrimidin-4-yl](methyl)amino}acetamide] | 8.1
CC(C)[C@H](O)COc1ccnc(-c2nc3c(c(N(C)CC(=O)NC(C)(C)C)n2)CCC3)c1 [Compound 386, N-tert-butyl-2-[(2-{4-[(2S)-2-hydroxy-3-methylbutoxy]pyridin-2-yl}-5H,6H,7H-cyclopenta[d]pyrimidin-4-yl)(methyl)amino]acetamide] | 8.4
CC(C)[C@@H](O)COc1ccnc(-c2nc3c(c(N(C)CC(=O)NC(C)(C)C)n2)CCC3)c1 [Compound 387, N-tert-butyl-2-[(2-{4-[(2R)-2-hydroxy-3-methylbutoxy]pyridin-2-yl}-5H,6H,7H-cyclopenta[d]pyrimidin-4-yl)(methyl)amino]acetamide] | 8.2

The remaining lines, values ahead:

pEC50 | Compound
8 | CN(CC(=O)N1CCCCC1)c1nc(-c2cc(OCCO)ccn2)nc2c1C(C)(C)CC2 [Compound 362, 2-({2-[4-(2-hydroxyethoxy)pyridin-2-yl]-5,5-dimethyl-5H,6H,7H-cyclopenta[d]pyrimidin-4-yl}(methyl)amino)-1-(piperidin-1-yl)ethan-1-one]
7.4 | CN(CC(=O)NC(C)(C)C)c1nc(-c2cc3ccoc3cn2)nc2c1CCC2 [Compound 365, N-tert-butyl-2-[(2-{furo[2,3-c]pyridin-5-yl}-5H,6H,7H-cyclopenta[d]pyrimidin-4-yl)(methyl)amino]acetamide]
7.7 | CC(=O)NCCOc1ccnc(-c2nc3c(c(N(C)CC(=O)NC(C)(C)C)n2)CCC3)c1 [Compound 369, N-tert-butyl-2-({2-[4-(2-acetamidoethoxy)pyridin-2-yl]-5H,6H,7H-cyclopenta[d]pyrimidin-4-yl}(methyl)amino)acetamide]
7.5 | COc1ccnc(-c2nc3c(c(N(C)CC(=O)N[C@H]4CCOC4)n2)CCC3)c1 [Compound 371, 2-{[2-(4-methoxypyridin-2-yl)-5H,6H,7H-cyclopenta[d]pyrimidin-4-yl](methyl)amino}-N-[(3S)-oxolan-3-yl]acetamide]
7.3 | COc1ccnc(-c2nc3c(c(N(C)CC(=O)NC4COC4)n2)CCC3)c1 [Compound 373, 2-{[2-(4-methoxypyridin-2-yl)-5H,6H,7H-cyclopenta[d]pyrimidin-4-yl](methyl)amino}-N-(oxetan-3-yl)acetamide]
8 | CN(CC(=O)NC1(C)CCC1)c1nc(-c2cc(OCCO)ccn2)nc2c1CCC2 [Compound 376, 2-({2-[4-(2-hydroxyethoxy)pyridin-2-yl]-5H,6H,7H-cyclopenta[d]pyrimidin-4-yl}(methyl)amino)-N-(1-methylcyclobutyl)acetamide]
7.8 | C[C@@H](O)COc1ccnc(-c2nc3c(c(N(C)CC(=O)NC4(C)CCC4)n2)CCC3)c1 [Compound 377, 2-[(2-{4-[(2R)-2-hydroxypropoxy]pyridin-2-yl}-5H,6H,7H-cyclopenta[d]pyrimidin-4-yl)(methyl)amino]-N-(1-methylcyclobutyl)acetamide]
7.2 | COc1ccnc(-c2nc3c(c(N(C)Cc4nc(Cc5ccccc5)co4)n2)CCC3)c1 [Compound 379, N-[(4-benzyl-1,3-oxazol-2-yl)methyl]-2-(4-methoxypyridin-2-yl)-N-methyl-5H,6H,7H-cyclopenta[d]pyrimidin-4-aminemide]
7.8 | CN(CC(=O)N1CCCCC1)c1nc(-c2cc(OCC(C)(C)O)ccn2)nc2c1CCC2 [Compound 382, 2-({2-[4-(2-hydroxy-2-methylpropoxy)pyridin-2-yl]-5H,6H,7H-cyclopenta[d]pyrimidin-4-yl}(methyl)amino)-1-(piperidin-1-yl)ethan-1-oneide]
7.8 | CN(CC(=O)NC12CC(C1)C2)c1nc(-c2cc(OCC(C)(C)O)ccn2)nc2c1CCC2 [Compound 383, N-{bicyclo[1.1.1]pentan-1-yl}-2-({2-[4-(2-hydroxy-2-methylpropoxy)pyridin-2-yl]-5H,6H,7H-cyclopenta[d]pyrimidin-4-yl}(methyl)amino)acetamide]
8.2 | C[C@@H](CO)Oc1ccnc(-c2nc3c(c(N(C)CC(=O)NC(C)(C)C)n2)CCC3)c1 [Compound 385, N-tert-butyl-2-{[2-(4-{[(2S)-1-hydroxypropan-2-yl]oxy}pyridin-2-yl)-5H,6H,7H-cyclopenta[d]pyrimidin-4-yl](methyl)amino}acetamide]
8.2 | CN(CC(=O)NC(C)(C)C)c1nc(-c2cc(OCC3(O)CCC3)ccn2)nc2c1CCC2 [Compound 388, N-tert-butyl-2-[(2-{4-[(1-hydroxycyclobutyl)methoxy]pyridin-2-yl}-5H,6H,7H-cyclopenta[d]pyrimidin-4-yl)(methyl)amino]acetamide]
7.9 | CC(C)NC(=O)CN(C)c1nc(-c2cc(OCC(C)(C)O)ccn2)nc2c1CCC2 [Compound 389, 2-({2-[4-(2-hydroxy-2-methylpropoxy)pyridin-2-yl]-5H,6H,7H-cyclopenta[d]pyrimidin-4-yl}(methyl)amino)-N-(propan-2-yl)acetamide]
7.8 | CCNC(=O)CN(C)c1nc(-c2cc(OCC(C)(C)O)ccn2)nc2c1CCC2 [Compound 390, N-ethyl-2-({2-[4-(2-hydroxy-2-methylpropoxy)pyridin-2-yl]-5H,6H,7H-cyclopenta[d]pyrimidin-4-yl}(methyl)amino)acetamide]
